15 compounds from ChEMBL document CHEMBL1147371, “Les Chimanines, Nouvelles Quinoleines Substituees en 2, Isolees d'Une Plante Bolivienne Antiparasitaire: Galipea longiflora” (1993) can be followed below.

One assay relates to Leishmania braziliensis. Description: Antileishmanial activity against Leishmania braziliensis 2903. In kind it is functional.
For another assay, the system named is Trypanosoma cruzi. Nature of the assay: Antitrypanosomal activity against Trypanosoma cruzi Tulahuen. It is filed as functional.

Converted amounts (≈) assume the structure as drawn.

Regarding `COc1cc(-c2ccccc2)nc2ccccc12`, the IC90 in the assay with Leishmania braziliensis was 50 µg/mL (≈ 213 µM); in the assay on Trypanosoma cruzi, 100 µg/mL (≈ 425 µM).

In the case of `COc1cc(CCc2ccc3c(c2)OCO3)nc2ccccc12` [CUSPARINE], the IC90 in the assay on Leishmania braziliensis and in the assay with Trypanosoma cruzi was 100 µg/mL (≈ 325 µM) each time. As to `c1ccc(-c2ccc3ccccc3n2)cc1` [2-PHENYLQUINOLINE], the IC90 with Leishmania braziliensis and with Trypanosoma cruzi was 100 µg/mL (≈ 487 µM) throughout. Regarding `CCCc1cc(OC)c2ccccc2n1` [CHIMANINE A], the IC90 with Leishmania braziliensis and with Trypanosoma cruzi was 100 µg/mL (≈ 497 µM) throughout. In the case of `CCCc1ccc2ccccc2n1`, the IC90 in the assay on Leishmania braziliensis and in the assay on Trypanosoma cruzi was 50 µg/mL (≈ 292 µM) in each case. Regarding `C[C@H]1O[C@@H]1c1ccc2ccccc2n1` (relative stereo) [CHIMANINE D], the IC90 in the assay with Leishmania braziliensis worked out at 25 µg/mL (≈ 135 µM); in the assay with Trypanosoma cruzi, 50 µg/mL (≈ 270 µM).

In the assay on Trypanosoma cruzi, `O=C(Cn1ccnc1[N+](=O)[O-])NCc1ccccc1` [BENZNIDAZOLE] displayed an IC90 of 50 µg/mL (≈ 192 µM). As for `CCCCCc1ccc2ccccc2n1`, the concentration for an effect of 90% (IC90) in the assay on Leishmania braziliensis and with Trypanosoma cruzi was 100 µg/mL (≈ 502 µM) throughout. Take `CCCCCc1cc(OC)c2ccccc2n1`: the IC90 with Leishmania braziliensis and in the assay on Trypanosoma cruzi was 100 µg/mL (≈ 436 µM) each time.

In the case of `COc1ccc(CCc2ccc3ccccc3n2)cc1OC`, the IC90 with Leishmania braziliensis and in the assay with Trypanosoma cruzi was 100 µg/mL (≈ 341 µM) in each case. Compound `N=C(N)c1ccc(OCCCCCOc2ccc(C(=N)N)cc2)cc1` [PENTAMIDINE] gave a 90% effect concentration (IC90) with Leishmania braziliensis of 1 µg/mL (≈ 2.94 µM). Turning to `c1ccc2nc(CCc3ccc4c(c3)OCO4)ccc2c1`, the 90% effect concentration (IC90) in the assay on Leishmania braziliensis and with Trypanosoma cruzi was 100 µg/mL (≈ 361 µM) throughout.

Take `C/C=C/c1ccc2ccccc2n1` [CHIMANINE B]: the IC90 in the assay with Leishmania braziliensis and in the assay on Trypanosoma cruzi was 25 µg/mL (≈ 148 µM) throughout. In the assay with Trypanosoma cruzi, `CC1CS(=O)(=O)CCN1/N=C/c1ccc([N+](=O)[O-])o1` (configuration not stated) [NIFURTIMOX] came in with an IC90 of 25 µg/mL (≈ 87 µM). `COc1ccc2c(OC)c3ccoc3nc2c1OC` [SKIMMIANINE]: the concentration for an effect of 90% (IC90) in the assay on Leishmania braziliensis and with Trypanosoma cruzi was 100 µg/mL (≈ 386 µM) each time.

Broadly, the IC90 is the concentration at which the effect reaches the 90% level. A lower IC90 goes with an effect from little substance.
